The record followed here is ChEMBL document CHEMBL1128700 (J Med Chem, 1995).

Assay [1] deals with Human immunodeficiency virus type 1 reverse transcriptase (Human immunodeficiency virus 1, UniProt Q72547). Briefly: Compound was evaluated for inhibition of WT HIV type I reverse transcriptase.
The target in assay [2] is Human immunodeficiency virus type 1 reverse transcriptase (Human immunodeficiency virus 1, UniProt Q72547, Y181C). Briefly: Compound was evaluated for inhibition of Y181C HIV type I reverse transcriptase.
Assay [3] concerns Human immunodeficiency virus type 1 reverse transcriptase (Human immunodeficiency virus 1), Q72547 [Y181C]. The settings on record: 10 uM.
Description: Percent inhibitory activity against Y181C HIV type I reverse transcriptase at a concentration of 10 uM
For assay [4], the target named is Human immunodeficiency virus type 1 reverse transcriptase (Human immunodeficiency virus 1) (UniProt Q72547). Briefly: Percent inhibitory activity against wild type (WT) HIV type I reverse transcriptase at a concentration of 1 uM.
Assay [5] deals with Human immunodeficiency virus type 1 reverse transcriptase (Human immunodeficiency virus 1), Q72547 [Y181C]. Briefly: Percent inhibitory activity against Y181C HIV type I reverse transcriptase at a concentration of 1 uM.

As for `CCN1c2ncccc2C(=O)Nc2c(COCc3ccccc3)cc(=O)[nH]c21`, the IC50 (commonly the concentration that inhibits the measured activity by half) amounted to 110 nM in assay [1] and 1070 nM in assay [2].

Turning to `Cc1ccnc2c1NC(=O)c1cccnc1N2C1CC1`, the results for the inhibition in assay [3] and in assay [4] were 59% and 85%, respectively.

Turning to `CCN1c2ncccc2C(=O)Nc2c(C=O)cc(-c3cccc(OC)c3)nc21`, the IC50 in assay [1] came out at 330 nM; in assay [2] it was 420 nM. The inhibition (as a rule, how much of the control response was suppressed) in assay [5] amounted to 63%; in assay [4], 71%.

On to `O=C1Nc2c(CNc3ccccc3)ccnc2N(C2CC2)c2ncccc21`, for which the IC50 turned out to be 60 nM in assay [1] and 1370 nM in assay [2]. Further, the inhibition came out at 41% in assay [5] and 87% in assay [4].

In the case of `O=C1Nc2c(Cc3ccccc3O)ccnc2N(C2CC2)c2ncccc21`, the IC50 in assay [1] came out at 190 nM; in assay [2], 1120 nM. The inhibition in assay [5] came out at 50%; in assay [4], 75%.

Take `CCNc1ccc(OCc2ccnc3c2NC(=O)c2cccnc2N3C2CC2)cc1`: the IC50 in assay [1] stood at 80 nM; in assay [2], 430 nM. Besides, the results for the inhibition in assay [5] and in assay [4] were 58% and 88%, respectively.

On to `CCN1c2ncccc2C(=O)Nc2c(Cc3ccccc3)cc(=O)[nH]c21`, for which the results for the IC50 in assay [1] and in assay [2] were 340 nM and 1300 nM, respectively.

For `O=C1Nc2c(COc3ccccc3)ccnc2N(C2CC2)c2ncccc21`, the IC50 in assay [1] was 120 nM; in assay [2] it was 2580 nM. The inhibition in assay [5] came to 26%; in assay [4] it was 78%.

`O=C1Nc2c(CSc3ccccc3)ccnc2N(C2CC2)c2ncccc21`: the concentration for half-maximal inhibition (IC50) in assay [1] was 1030 nM. Further, the inhibition in assay [5] turned out to be 14%; in assay [4], 44%.

For `O=C1Nc2c(COc3ccccc3Cl)ccnc2N(C2CC2)c2ncccc21`, the IC50 in assay [1] came to 3050 nM. Also, the figures for the inhibition in assay [5] and in assay [4] were 20% and 30%, respectively.

Turning to `Nc1ccc(OCc2ccnc3c2NC(=O)c2cccnc2N3C2CC2)cc1`, the IC50 came to 100 nM in assay [1] and 1010 nM in assay [2]. The inhibition in assay [5] turned out to be 49%; in assay [4], 91%.

The compound `COc1ccc(OCc2ccnc3c2NC(=O)c2cccnc2N3C2CC2)cc1` showed a concentration for half-maximal inhibition (IC50) in assay [1] of 1040 nM. Further, the inhibition in assay [5] stood at 41%; in assay [4] it was 47%.

With `CCN1c2ncccc2C(=O)Nc2c(CO)cc(O)nc21`, in assay [1], it took 420 nM to reach half-maximal inhibition (IC50). In addition, the inhibition in assay [5] is 25%; in assay [4], 51%.
